Like-named read-outs stand apart in the source and are kept apart here.
Legend:
[1] = biological target: T1, iodide transport in rat thyroid-derived cell lines (FRTL5) (Rattus norvegicus, UniProt Q63008); settings: reported in literature (N. Lecat-Guillet et al., 2008); read-out: IC50, iodide uptake in FRTL5 cells; cited from earlier work
T1 construct: host or cells: FRTL5 (rat thyroid-derived cells), endogenous NIS
T1 sequence (Q63008 1-618): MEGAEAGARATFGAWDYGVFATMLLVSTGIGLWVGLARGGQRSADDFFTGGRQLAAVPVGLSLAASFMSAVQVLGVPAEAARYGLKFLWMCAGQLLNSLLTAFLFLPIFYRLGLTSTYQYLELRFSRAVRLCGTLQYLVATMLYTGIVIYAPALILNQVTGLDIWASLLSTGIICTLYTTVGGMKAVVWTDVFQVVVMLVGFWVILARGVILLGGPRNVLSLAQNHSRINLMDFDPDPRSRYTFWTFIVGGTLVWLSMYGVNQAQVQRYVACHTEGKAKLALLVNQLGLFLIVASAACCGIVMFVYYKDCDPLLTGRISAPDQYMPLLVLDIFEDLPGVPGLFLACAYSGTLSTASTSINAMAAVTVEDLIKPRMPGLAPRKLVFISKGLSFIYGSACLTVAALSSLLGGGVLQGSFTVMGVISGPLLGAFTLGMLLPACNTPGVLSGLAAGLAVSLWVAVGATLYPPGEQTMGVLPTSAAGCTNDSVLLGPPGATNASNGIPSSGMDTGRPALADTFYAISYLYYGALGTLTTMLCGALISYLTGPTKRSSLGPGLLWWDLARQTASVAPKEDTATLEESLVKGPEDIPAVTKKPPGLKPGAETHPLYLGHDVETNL

[2] = biological target: T2, sodium iodide symporter (NIS), iodide transport in FRTL5 cells (Rattus norvegicus, UniProt Q63008); settings: F. Waltz et al., Anal. Biochem., 2010; read-out: IC50, competitive inhibition of iodide transport in FRTL5 cells; cited from earlier work
T2 construct: host or cells: FRTL5 (rat thyroid-derived cells), endogenous NIS
T2 sequence (Q63008 1-618): T1 sequence (Q63008 1-618)

hNIS-HEK293 cells = biological target: T3, hNIS-HEK293 cells (Homo sapiens, UniProt Q92911); settings: cited from earlier work
T3 construct: host or cells: HEK293 stably expressing human NIS
T3 sequence (Q92911 1-643): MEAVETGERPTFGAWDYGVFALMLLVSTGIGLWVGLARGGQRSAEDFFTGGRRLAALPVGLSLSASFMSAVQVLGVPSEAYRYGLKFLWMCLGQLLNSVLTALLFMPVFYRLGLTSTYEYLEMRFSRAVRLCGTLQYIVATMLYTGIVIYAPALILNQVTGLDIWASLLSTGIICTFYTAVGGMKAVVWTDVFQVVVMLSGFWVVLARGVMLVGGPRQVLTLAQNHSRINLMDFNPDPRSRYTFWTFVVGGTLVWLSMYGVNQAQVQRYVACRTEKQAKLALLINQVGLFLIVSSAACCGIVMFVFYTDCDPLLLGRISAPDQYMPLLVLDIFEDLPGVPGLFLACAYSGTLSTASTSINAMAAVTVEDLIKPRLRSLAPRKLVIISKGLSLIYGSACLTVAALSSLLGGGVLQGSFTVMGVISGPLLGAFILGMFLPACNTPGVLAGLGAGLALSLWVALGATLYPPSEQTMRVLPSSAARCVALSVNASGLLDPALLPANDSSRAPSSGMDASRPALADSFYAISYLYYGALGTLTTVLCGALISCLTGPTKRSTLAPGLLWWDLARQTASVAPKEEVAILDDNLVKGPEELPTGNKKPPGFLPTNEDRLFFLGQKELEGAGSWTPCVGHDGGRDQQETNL

[3] = concentration up to 200 μM; cited from earlier work
[4] = biological target: T4, sodium iodide symporter (NIS), iodide uptake in FRTL5 cells (Rattus norvegicus, UniProt Q63008); test: Inhibition of iodide uptake in FRTL5 cells, non radioactive arsenic/cerium assay; type: cell-based; settings: NaI 10 μM, 1 hour, 20°C, read-out: IC50 (μM), inhibitory activity against iodide uptake in FRTL5 cells
T4 construct: endogenous in cells; host or cells: FRTL5 (rat thyroid-derived cells)
T4 sequence (Q63008 1-618): T1 sequence (Q63008 1-618)
Experimental: Some of the synthesized compounds were evaluated for their ability to inhibit iodide entrapment in FRTL5 cells. The IC50 values were measured in at least […] independent experiments.
The biological activity of each compound was determined in FRTL5 cells, using a non radioactive arsenic/cerium assay as described in F. Waltz et al., Anal. Biochem., 2012, 396, 91-95. Compound potency was expressed as IC50, the concentration of compound necessary to achieve 50% inhibition of iodide uptake. Briefly, to FRTL5 cells at 70-90% confluence was added compound (200 μM, 10 μM, 0.5 μM, 25 nM, 1.2 nM, 60 pM, […], and 0.15 pM final), followed by NaI (10 μM final). After 1 hour incubation at 20±1° C., supernatant was removed and the cells were immediately assayed for iodide content using the modified As/Ce Sandell-Kolthoff reaction. NaClO4 was tested in each microplate as assay controls. The IC50 values of all compounds were measured least thrice independently.
Stock solutions of tested compounds were prepared in DMSO (20 mM) and that of NaClO4 in water (20 mM). These stock solutions were stored at 4° C. for up to 2 months. Sample dilutions: the day of the assay, a daughter plate (clear flat-bottomed 96-well polystyrene microplates, Costar 9017) was prepared from 20 mM stock solutions. NaClO4 (column 2) and DHPM samples (columns 4 to 11) were diluted at 10× the final concentration in uptake buffer.
FRTL5 cells were cultured as described in F. S. Ambesi-Impiombato et al., Proc. Natl. Acad. Sci. USA, 1980, 77, 3455-3459. Briefly, FRTL5 cells were cultured in Coon's modified F12 medium supplemented with 5% heat-inactivated fetal bovine serum (Invitrogen), 2 mM L-glutamine, 100 U/mL penicillin, 0.1 mg/mL streptomycin, 10 μg/mL insulin, 10 nM hydrocortisone, 10 ng/mL Gly-His-Lys acetate, 1 mU/mL TSH, 5 μg/mL transferrin at 37° C. and 5% CO2. For iodide uptake assays, 200 μL of FRTL5 cells with density of 250,000 cells/mL were dispensed in each well of clear flat-bottomed 96-well polystyrene microplates (Costar 3628) using the Multidrop 384 (ThermoFisher Scientific), and further cultured until confluence reached 80-90% (3-4 days).
The culture medium of FRTL5 monolayer cells at 80-90% confluence was replaced by uptake buffer (20° C.) via continuous aspiration/dispense cycle (600 μL) using a 96-needle head plate washer PW 384 (Tecan). The 96-needle head was set to a vertical position such that 80 μL of fresh uptake buffer remained in each well at the end of the cycle. The samples (10 μL each) from the daughter plate were transferred all at once to the assay plate using the 96-tip head pipettor Liquidator 96 (Mettler Toledo). Immediately after, 10 μL of a NaI solution at 100 μM was added to each well of the assay plate using the Liquidator 96. The assay plate was left to stand in the dark at 20±1° C. for 60 min. The assay plate was then washed with cold (4° C.) uptake buffer using the PW 384 plate washer and residual supernatant was immediately discarded by inverting the assay plate on absorbent paper.
Sodium iodide standards (S1 to S7) and water (S0) were distributed in duplicate (100 μL each) in the first and last column of the assay plate. Water (100 μL) was added to the columns with the Multidrop 384. 100 μL of the ammonium cerium (IV) sulfate solution (10.5 mM) was distributed into the columns, followed by 100 μL of the sodium arsenite (III) solution (24 mM) using the Multidrop 384. The assay plate was left to stand at 20±1° C. for 30 min. The absorbance at 420 nm (Abs420) was immediately recorded on a SpectraMax Plus 384 (Molecular Devices). A calibration curve was prepared for each plate by plotting the logarithmic conversion of the means of Abs420 (n=2) vs iodide standard concentrations (S0 to S7). The iodide concentrations in the samples were determined after linear regression of the calibration curve.

Row | SMILES | IC50 [2] [nM] | melting point [°C] | other results
1 | F[B-](F)(F)c1ccc(OCc2ccccc2)cc1 [ITB11] | – | – | IC50 [1]: 400 nM
2 | [O-][Cl+3]([O-])([O-])O [ClO4^−] | 140 | – | –
3 | F[B-](F)(F)F [BE4^−] | 750 | – | –
4 | O=[N+]([O-])O [NO3^−] | 250000 | – | –
5 | F[P-](F)(F)(F)(F)F [PF6^−] | 9 | – | –
6 | COc1ccc(COC(=O)C2=C(C)NC(=O)NC2c2ccccc2)cc1 (stereo not drawn) [Compound 1, 4-methoxybenzyl 6-methyl-2-oxo-4-phenyl-1,2,3,4-tetrahydropyrimidine-5-carboxylate] | – | 162 to 164 | Efflux of iodide from preloaded hNIS-HEK293 cells (hNIS-HEK293 cells): can trigger a rapid efflux of iodide; Cytotoxicity [3]: not found cytotoxic
7 | CC1=C(C(=O)OCc2ccc3c(c2)OCO3)C(c2ccco2)NC(=O)N1C (stereo not drawn) [Compound 60, Benzo[d][1,3]dioxol-5-ylmethyl 4-(furan-2-yl)-1,6-dimethyl-2-oxo-1,2,3,4-tetrahydropyrimidine-5-carboxylate] | – | 141 to 143 | IC50 ([4]; Table 5, variations at Y, R1, R3, R4, R5, averaged from two to four independent experiments): 0.073 µM
8 | COc1ccc(COC(=O)C2=C(c3cccs3)NC(=O)NC2c2ccccc2)cc1 (stereo not drawn) [Compound 48, 4-Methoxybenzyl 2-oxo-4-phenyl-6-(thiophen-2-yl)-1,2,3,4-tetrahydropyrimidine-5-carboxylate] | – | 78 to 80 | IC50 ([4]; Table 3, variations at R2, averaged from three or four independent experiments): 0.55 µM
